# Article PMC6151740, “Pharmacokinetics, Tissue Distribution, and Elimination of Three Active Alkaloids in Rats after Oral Administration of the Effective Fraction of Alkaloids from Ramulus Mori, an Innovative Hypoglycemic Agent” (Molecules : A Journal of Synthetic Chemistry and Natural …, 2017)
# Where “and” joins values, the source holds several entries; their conditions need not be identical. Equal entries are not always repeated. Where two headings read alike, the source gives them in different places.
# How the values were obtained:
# [1] = Excretion into urine, feces and bile in rats after oral SZ–A; assay type: in vivo; details: rat, SZ–A 40 mg/kg p.o.
# Description: Five rats were kept in the metabolic cages with free access to water and food 2 h post dose. Urine was collected before dosing and at 0–4, 4–8, 8–24, 24–36, and 36–48 h, and feces was simultaneously collected before dosing and at 0–24, 24–36, and 36–48 h after oral dosing of SZ–A (40 mg/kg). Feces samples were dried and grinded into powder, then homogenized with normal saline solution (1:9, w/v). Additionally, the bile duct of rats under ether anesthesia were cannulated with a PE-10 tube (Portex Ltd., Kent, UK). Bile was collected before dosing and at 0–1, 1–2, 2–4, 4–6, 6–10, 10–20, 20–24, 24–28, and 28–32 h following oral administration of SZ–A (40 mg/kg). All urine, feces, and bile samples were stored at −20 °C until LC-MS/MS analysis.
# [2] = Plasma pharmacokinetic study in rats after oral and intravenous administration of SZ–A or purified DNJ; assay type: in vivo, rat; details: for MRT last: read-out: MRT0–t; for MRT inf: read-out: MRT0–∞; for bioavailability: plasma, read-out: F (oral absolute bioavailability)
# Description: The oral dosing solutions used for all animal studies were prepared by dissolving in water. Thirty rats weighed 250–270 g after acclimation were randomly divided into six groups of five animals each. For oral administration, rats were treated with SZ–A (40, 200, 1000 mg/kg) or purified DNJ (15 mg/kg) dissolve in water. Blood samples (about 0.25 mL) were collected via the postorbital venous plexus veins under ether anesthesia into heparinized polythene tubes before dosing and at 0.08, 0.17, 0.33, 0.50, 1, 2, 3, 4, 6, 8, 12, 24 and 36 h after drug administration. For intravenous dosing, rats were given SZ–A (4 mg/kg) or DNJ (1.5 mg/kg) dissolved in normal saline solution through the tail vein. Then blood samples were collected at 0.03, 0.08, 0.17, 0.33, 0.67, 1, 2, 4, 6, 8, 12, 24, and 36 h under similar conditions. Considering the physical limit of blood in rats, during the process of the pharmacokinetic experiment, each rat was received 0.25 mL of sterile isotonic saline at each time point after blood sampling for compensation of body fluid loss, and the blood loss was also corrected at a definite degree. Plasma was separated by centrifuging the blood samples at 1660× g for 5 min and stored at −20 °C until LC-MS/MS analysis. Data fitting and pharmacokinetic parameter estimates were carried out using non–compartmental analysis via WinNonlin Software (version 6.1, Pharsight Corporation, Mountain View, CA, USA). F was calculated according to the formula: F (%) = (AUC oral/AUC i.v.) × (dose i.v./dose oral) × 100.
# The plasma, feces, urine, and bile samples (100 μL) were added to 1 μL of Tris aqueous solution (2 M), 10 μL of IS working solution (2 μg/mL), and 190 μL methanol–acetonitrile (25:75, v/v). The incubation supernatant samples (300 μL) were mixed with 1 μL Tris aqueous solution (2 M) and 10 μL of IS working solution (2 μg/mL). All mixtures were vortexed for 30 s followed by centrifugation at 18,880× g for 5 min, twice.
# Briefly, the LC-MS/MS instrument consisted of a 1260 HPLC system (Agilent, Santa Clara, CA, USA) and API4000 triple quadrupole mass spectrometer (Applied Biosystems Sciex, Toronto, ON, Canada) with an electrospray ionization (ESI) source and Analyst software (version 1.5.2, Applied Biosystems Sciex, Toronto, ON, Canada) for data acquisition and processing. DNJ, FGM, DAB, and IS were separated in a Xbridge amide™ column (3.5 μm, 4.6 mm × 150 mm; Waters, Milford, MA, USA) with a gradient mobile phase of acetonitrile-water (0.1% ammonium hydroxide) at a flow rate of 0.7 mL/min. An ESI source was used in the positive ion mode. The optimized mass spectrometric condition was as follows: ion spray voltage, 5500 V; collision gas, 6 psi; curtain gas, 20 psi; ion source gas 1 (GS1), 45 psi; ion source gas 2 (GS2), 45 psi; temperature, 450 °C. The multiple reaction monitoring (MRM) transitions of DNJ, FGM, DAB, and IS were m/z 164.0→110.1 (declustering potential (DP) 50 V, collision energy (CE) 22 V, collision cell exit potential (CXP) 10 V), 148.0→112.1 (DP 66 V, CE 21 V, CXP 10 V), 134.0→98.0 (DP 60 V, CE 20 V, CXP 10 V) and 208.0→146.1 (DP 50 V, CE 27 V, CXP 10 V), respectively.
# [3] = Sprague-Dawley, iv, rat plasma, SZ–A 4 mg/kg i.v., n = 5
# [4] = Sprague-Dawley, po, rat plasma, SZ–A 40 mg/kg p.o., n = 5
# [5] = Sprague-Dawley, po, rat plasma, SZ–A 200 mg/kg p.o., n = 5
# [6] = Sprague-Dawley, po, rat plasma, SZ–A 1000 mg/kg p.o., n = 5
# [7] = rat plasma, SZ–A 40 mg/kg p.o., n = 5
# [8] = rat plasma, SZ–A 200 mg/kg p.o., n = 5
# [9] = rat plasma, SZ–A 1000 mg/kg p.o., n = 5
smiles,measurement,setting,value
"OC[C@H]1NCC[C@@H](O)[C@@H]1O [FGM, fagomine]",dose excreted,"[1]; bile, po, within 32 h, read-out: recovery in bile (% of dose)",0.5%
same,total excretive amount (urine and feces) relative to the oral dose,[1],about two-fold
same,cumulative excretion into urine (% of dose),"[1]; over a 24 h period, n = 5",65.36%
same,cumulative excretion into feces (% of dose),"[1]; over a 24 h period, n = 5, 40 mg/kg",131.4% and 131.41%
same,AUC(0-inf),[2]; [3],284 ± 36.7 ng·h/mL
same,AUC(0-t),[2]; [3],278 ± 36.8 ng·h/mL
same,Cmax,[2]; [3],1240 ± 304 ng/mL
same,Tmax,[2]; [3],0.033 h
same,half-life,[2]; [3],0.23 ± 0.03 h
same,clearance,"[2]; Sprague-Dawley, iv, rat plasma, SZ–A 4 mg/kg i.v., n = 5, read-out: CLz (converted)",15.4 mL/min/kg
same,MRT last,[2]; [3],0.26 ± 0.06 h
same,MRT inf,[2]; [3],0.3 ± 0.06 h
same,Vd,"[2]; Sprague-Dawley, iv, rat plasma, SZ–A 4 mg/kg i.v., n = 5, read-out: Vd",0.308 ± 0.061 L/kg
same,bioavailability,"[2]; Sprague-Dawley, po, rat, SZ–A 40 mg/kg p.o. vs SZ–A 4 mg/kg i.v.",77.5%
same,bioavailability,"[2]; Sprague-Dawley, po, rat, SZ–A 200 mg/kg p.o. vs SZ–A 4 mg/kg i.v.",38.5%
same,bioavailability,"[2]; Sprague-Dawley, po, rat, SZ–A 1000 mg/kg p.o. vs SZ–A 4 mg/kg i.v.",29.9%
same,AUC(0-inf),[2]; [4],2170 ± 770 ng·h/mL
same,AUC(0-t),[2]; [4],2160 ± 778 ng·h/mL
same,Cmax,[2]; [4],1490 ± 756 ng/mL
same,Tmax,[2]; [4],0.67 ± 0.29 h
same,half-life,[2]; [4],0.93 ± 0.29 h
same,MRT last,[2]; [4],1.41 ± 0.27 h
same,MRT inf,[2]; [4],1.48 ± 0.34 h
same,AUC(0-inf),[2]; [5],5400 ± 1470 ng·h/mL
same,AUC(0-t),[2]; [5],5360 ± 1490 ng·h/mL
same,Cmax,[2]; [5],2250 ± 1060 ng/mL
same,Tmax,[2]; [5],0.57 ± 0.09 h
same,half-life,[2]; [5],1.44 ± 0.16 h
same,MRT last,[2]; [5],2.66 ± 0.52 h
same,MRT inf,[2]; [5],2.78 ± 0.54 h
same,AUC(0-inf),[2]; [6],21800 ng·h/mL
same,AUC(0-t),[2]; [6],20800 ng·h/mL
same,Cmax,[2]; [6],4390 ± 2360 ng/mL
same,Tmax,[2]; [6],1.3 ± 0.67 h
same,half-life,[2]; [6],2.73 ± 1.16 h
same,MRT last,[2]; [6],5.44 ± 1.77 h
same,MRT inf,[2]; [6],6.15 ± 2.11 h
same,CLz,[2]; [7],21.965 ± 9.748 mL/min/kg
same,Vd,[2]; [7],1.894 ± 1.3578 L/kg
same,CLz,[2]; [8],42.625 ± 13.11 mL/min/kg
same,Vd,[2]; [8],5.332 ± 1.8559 L/kg
same,CLz,[2]; [9],56.43 ± 21.033 mL/min/kg
same,Vd,[2]; [9],"14,243.4 ± 9987.6 mL/kg"
same,time to reach maximum plasma concentration (Cmax),"[2]; rat, after oral administration of SZ–A (40, 200, 1000 mg/kg), upper bound over doses",≤ 1.30 h
